{
  "source": "patent US7423068B2",
  "about": "“Control of parasitic mites of honey bees” (The United States of America as represented by the …, priority 2001, dated 2008)",
  "key": {"[1]": {"system": "honey bee (Apis mellifera L.) colony", "experiment": "Influence of 2-heptanone on honey bee colony behavior (two-frame observation hive)", "format": "in vivo", "procedure": "Tests were conducted with 2-heptanone in pure form and in a 30% concentration in acrylic block made as in Example 6 to determine its effects on the honey bee (Apis mellifera L.) colony behavior. A two-frame observation hive (the hive had one frame on the bottom with adult worker bees and brood and a top frame with adult worker bees and honey) with a laying queen was used for the study. […] Within 4 hours the 2-heptanone had evaporated, and the bees returned to the frame, and the fanning stopped.\nTo test the effects of 2-heptanone in acrylic blocks, we again conducted studies using two frame observation hives arranged as described above. For one week prior to inserting the acrylic blocks, we measured queen ovipositions, and the number of workers bees leaving the hive per 5-minute interval in four observation colonies. We also counted the number of workers in a court surrounding the queen once during the 5-minute interval. We then added one acrylic block dispenser with a surface area of 8.04 cm^2 containing a 30% concentration of 2-heptanone. […] The latter served as Controls."}, "[2]": {"system": "honey bee (Apis mellifera L.) colony", "experiment": "Maximum levels of 2-heptanone without negatively impacting bee behavior (observation hive)", "format": "in vivo", "conditions": "pure 2-heptanone up to 500 μL on filter paper (2700 ppm v/v or 0.27%), queenless two-frame hive, 23° C.", "procedure": "A test was conducted with 2-heptanone in pure form to determine its effects on honey bee (Apis mellifera L.) colony behavior and ascertain if there was a maximum dose of 2 heptanone that could induce a colony to leave their hive. Two full sized frames were taken from a colony in our local apiary and placed inside a two-frame observation hive having a total volume of 8565 cm^3.These two frames contained adult worker bees only and were queenless. A 2-day period when no testing occurred was included to allow for colony adjustment to the new dwellings. The observation hive was set up inside a greenhouse with a 2.5 cm tube connected from the side of the observation hive to the side wall of the greenhouse. This tube served as an exit and entrance for the workers.\nWe fastened a strip of filter paper measuring 7.6 cm by 2.5 cm to the top inside frame of the observation colony with a thumbtack and applied an initial 100 μL of pure 2-heptanone to the filter paper and observed worker behavior. Subsequent applications of 40 μL of 2-heptanone were applied every 4 minutes with observations of worker behavior documented. Ambient temperature at the time of the observations was 23° C. […]\nOur experiment ended when 500 μL of pure 2-heptanone was the total amount on our filter paper. Concentration of 500 μL of 2-heptanone in the two-frame observation hive was calculated to be 2700 ppm v/v or 0.27%."}, "[3]": {"system": "Varroa mites", "experiment": "Bulls eye petri dish bioassay for attractiveness", "format": "in vivo, Varroa jacobsoni", "conditions": "for % of Varroa at distance from Target Source 2.5 cm / % of Varroa at distance from Target Source 3.8 cm / % of Varroa at distance from Target Source 6.3 cm / % of Varroa in Target / % of Varroa at distance from Target Source 1.3 cm / % of Varroa at distance from Target Source 5.1 cm: 0.04 g of 30% 2-heptanone acrylic block", "procedure": "A third bioassay to test for attractiveness of 2-heptanone to Varroa was conducted in petri dishes with a diameter of 13.97 cm and a volume of 76.64 cm^3. The dishes were prepared as described previously in the first bioassay of this Example using 20% gel formulation of 2-heptanone. However, the petri dishes for this bioassay were modified by drilling a hole 1.6 cm in diameter into the center of the dish. This hole was large enough to fit a 1.5 mL Eppendorf® tube which would serve as the dispenser for the 2-heptanone. The lid of each petri dish was labeled in a “bulls eye” fashion with concentric circles at 1.27 cm increments from the center where the Eppendorf® tube was located. The maximum distance from the center was 6.35 cm. The Eppendorf® tube is considered the target. In the treatment dishes, 0.04 g of 2-heptanone in acrylic block formulation (30% concentration) was placed in the Eppendorf® tube and covered with a small amount of sterile cotton. Control dishes were prepared in the same manner as the treatment dishes but the Eppendorf® tubes contained only cotton. Mites (4-5 per dish) were placed in each dish in the area furthest from the center where the Eppendorf® tube was located.\nAfter the dishes were prepared a square section of mosquito netting large enough to cover the top of the petri dish was placed over the dish and secured with a rubber band. The mosquito netting was used instead of a lid on the dish. The mesh of the netting was wide enough to allow the 2-heptanone to volatilize, but prevented the mites from escaping. The marked lids were placed on top of the dishes every 30 minutes to document mite movement. After the measurements were made, the lids were immediately removed.\nA fourth test of attractiveness was conducted in the petri dishes that were prepared as described above. In this test 0.06 g of 2-heptanone (30% concentration in acrylic block delivery system) was placed in the center target of the treatment plates. Control plates contained an empty Eppendorf® tube. The mites were placed 3.17 cm from the target. The mites could move closer or farther away from the target. Two treatment and two Control plates with 5 mites each were observed."}, "[4]": {"conditions": "filter paper with 40 μl of pure 2-heptanone"}, "[5]": {"conditions": "exposure 1 hr, significantly different from Control"}},
  "note": "Marks after values point to notes of the source that are not given here.",
  "data": [
    {"smiles": "CCCCCC(C)=O", "note": "[2-Heptanone]", "values": [
      {"measurement": "immediate effect on the bees on the frames", "setting": "[1]; acrylic block 8.04 cm^2, 30% 2-heptanone", "value": "no immediate effect on the bees on the frames"},
      {"measurement": "Ovipositions, Post-Treatment", "setting": "[1]; acrylic block 8.04 cm^2, 30% 2-heptanone, average per 5-minute interval, pretreatment 5.3", "value": 5.3},
      {"measurement": "Workers in court, Post-Treatment", "setting": "[1]; acrylic block 8.04 cm^2, 30% 2-heptanone, average per 5-minute interval, pretreatment 10.2", "value": 10.2},
      {"measurement": "Foragers leaving, Post-Treatment", "setting": "[1]; acrylic block 8.04 cm^2, 30% 2-heptanone, average per 5-minute interval, pretreatment 16.1, significantly different p = 0.05", "value": "23.6*"},
      {"measurement": "bee behavior after placing 2-heptanone in observation colony", "setting": "[1]; [4]", "value": "all the bees moved off of the frame and began to fan"},
      {"measurement": "time until 2-heptanone evaporated, bees returned to the frame and fanning stopped", "setting": "[1]; [4]", "value": "≤ 4", "unit": "h"},
      {"measurement": "bees exiting the observation hive", "setting": "[2]", "value": "At no time however, did all bees fully or permanently exit the observation hive"},
      {"measurement": "% of Varroa at distance from Target Source 2.5 cm", "setting": "[3]; exposure 1 hr", "value": 7.5, "unit": "%"},
      {"measurement": "% of Varroa at distance from Target Source 3.8 cm", "setting": "[3]; exposure 1 hr", "value": 25.0, "unit": "%"},
      {"measurement": "% of Varroa at distance from Target Source 6.3 cm", "setting": "[3]; exposure 1 hr", "value": 17.5, "unit": "%"},
      {"measurement": "% of Varroa in Target", "setting": "[3]; exposure 1 hr", "value": 0, "unit": "%"},
      {"measurement": "% of Varroa at distance from Target Source 1.3 cm", "setting": "[3]; [5]", "value": "27.5* %"},
      {"measurement": "% of Varroa at distance from Target Source 5.1 cm", "setting": "[3]; [5]", "value": "16.2* %"},
      {"measurement": "% of Varroa at distance from Target Source 1.3 cm", "setting": "[3]; exposure 2 hrs", "value": 32.5, "unit": "%"},
      {"measurement": "% of Varroa at distance from Target Source 2.5 cm", "setting": "[3]; exposure 2 hrs", "value": 20.0, "unit": "%"},
      {"measurement": "% of Varroa at distance from Target Source 3.8 cm", "setting": "[3]; exposure 2 hrs", "value": 12.5, "unit": "%"},
      {"measurement": "% of Varroa at distance from Target Source 5.1 cm", "setting": "[3]; exposure 2 hrs", "value": 15.0, "unit": "%"},
      {"measurement": "% of Varroa at distance from Target Source 6.3 cm", "setting": "[3]; exposure 2 hrs", "value": 10.0, "unit": "%"},
      {"measurement": "% of Varroa in Target", "setting": "[3]; exposure 2 hrs", "value": 7.5, "unit": "%"},
      {"measurement": "% of Varroa at distance from Target Source 1.3 cm", "setting": "[3]; exposure 3 hrs", "value": 45.6, "unit": "%"},
      {"measurement": "% of Varroa at distance from Target Source 2.5 cm", "setting": "[3]; exposure 3 hrs", "value": 10.6, "unit": "%"},
      {"measurement": "% of Varroa at distance from Target Source 3.8 cm", "setting": "[3]; exposure 3 hrs", "value": 22.5, "unit": "%"},
      {"measurement": "% of Varroa at distance from Target Source 5.1 cm", "setting": "[3]; exposure 3 hrs", "value": 12.5, "unit": "%"},
      {"measurement": "% of Varroa at distance from Target Source 6.3 cm", "setting": "[3]; exposure 3 hrs", "value": 7.5, "unit": "%"},
      {"measurement": "% of Varroa in Target", "setting": "[3]; exposure 3 hrs", "value": 3.1, "unit": "%"},
      {"measurement": "% of Varroa at distance from Target Source 1.3 cm", "setting": "[3]; exposure 4 hrs", "value": 42.2, "unit": "%"},
      {"measurement": "% of Varroa at distance from Target Source 2.5 cm", "setting": "[3]; exposure 4 hrs", "value": 13.3, "unit": "%"},
      {"measurement": "% of Varroa at distance from Target Source 3.8 cm", "setting": "[3]; exposure 4 hrs", "value": 20.0, "unit": "%"},
      {"measurement": "% of Varroa at distance from Target Source 5.1 cm", "setting": "[3]; exposure 4 hrs", "value": 18.8, "unit": "%"},
      {"measurement": "% of Varroa at distance from Target Source 6.3 cm", "setting": "[3]; exposure 4 hrs", "value": 5.5, "unit": "%"},
      {"measurement": "% of Varroa in Target", "setting": "[3]; exposure 4 hrs", "value": 0, "unit": "%"},
      {"measurement": "% of mites that moved into the target", "setting": "[3]; fourth test, 0.06 g of 30% 2-heptanone acrylic block, 4 hr. observation, Controls 0.0%", "value": 9.1, "unit": "%"},
      {"measurement": "% of mites that moved within 1.27 cm of the target", "setting": "[3]; fourth test, 0.06 g of 30% 2-heptanone acrylic block, mites placed 3.17 cm from target, 4 hr. observation, Controls 6.2%", "value": 38.4, "unit": "%"}
    ]}
  ]
}
